Experimental data taken from publication PMC5518309 (ChemMedChem, 2014).
Numbered stars: 1 amine (or outer) side, 2 acyl side, 3 side chain; on linkers, the order of the positions; unused ones are H or OH. Side chains are listed from the residue outwards. Peptide text beside a SMILES is read from it. * marks the point of attachment. X1 = CN(C)c1ccc2c(c1)Oc1cc(N(C)C)ccc1C21OC(=O)c2ccc(C(=O)*)cc21; γGlu = O=C(O)[C@H](CCC(=O)[*:2])N[*:1]; Octanoyl = CCCCCCCC(=O)*

What was measured:
[1] = target: hY4R (Homo sapiens, UniProt P50391); experiment: Radioligand binding assay, displacement of [3H]-hPP
Chain of hY4R (P50391 whole entry): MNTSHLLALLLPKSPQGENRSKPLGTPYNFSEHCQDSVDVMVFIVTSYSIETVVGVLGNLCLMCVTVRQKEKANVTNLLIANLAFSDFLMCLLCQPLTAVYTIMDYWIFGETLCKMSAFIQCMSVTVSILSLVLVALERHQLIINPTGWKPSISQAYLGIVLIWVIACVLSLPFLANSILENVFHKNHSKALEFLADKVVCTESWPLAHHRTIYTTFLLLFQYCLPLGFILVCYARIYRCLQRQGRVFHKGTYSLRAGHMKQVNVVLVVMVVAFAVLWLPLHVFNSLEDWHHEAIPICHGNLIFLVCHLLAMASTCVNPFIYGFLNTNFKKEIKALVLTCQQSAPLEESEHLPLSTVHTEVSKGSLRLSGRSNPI

[2] = cited from earlier work
[3] = Metabolic stability in porcine liver homogenates; format: in vitro ADME; conditions: pig, porcine liver homogenate (supernatant)
[4] = Stability test in human blood plasma; format: in vitro ADME; conditions: human

Row | Compound | IC50 [1] | also measured
1 | CCCCCCCCCCCCCCCC(=O)N[C@@H](CCC(=O)NCCCC[C@H](NC(=O)[C@@H](NC(=O)[C@@H]1CCCN1C(=O)[C@H](CCC(=O)O)NC(=O)[C@H](CC(C)C)NC(=O)[C@@H]1CCCN1C(=O)[C@H](C)NC(=O)c1ccc2c(c1)C(=O)OC21c2ccc(O)cc2Oc2cc(O)ccc21)C(C)C)C(=O)N1CCC[C@H]1C(=O)NCC(=O)N[C@@H](CC(=O)O)C(=O)N[C@@H](CC(N)=O)C(=O)N[C@@H](C)C(=O)N[C@H](C(=O)N1CCC[C@H]1C(=O)N[C@@H](CCC(=O)O)C(=O)N[C@@H](CCC(N)=O)C(=O)N[C@@H](CCSC)C(=O)N[C@@H](C)C(=O)N[C@@H](CCC(N)=O)C(=O)N[C@@H](Cc1ccc(O)cc1)C(=O)N[C@@H](C)C(=O)N[C@@H](C)C(=O)N[C@@H](CC(=O)O)C(=O)N[C@@H](CC(C)C)C(=O)N[C@@H](CCCNC(=N)N)C(=O)N[C@@H](CCCNC(=N)N)C(=O)N[C@@H](Cc1ccc(O)cc1)C(=O)N[C@H](C(=O)N[C@@H](CC(N)=O)C(=O)N[C@@H](CCSC)C(=O)N[C@@H](CC(C)C)C(=O)N[C@H](C(=O)N[C@@H](CCCNC(=N)N)C(=O)N1CCC[C@H]1C(=O)N[C@@H](CCCNC(=N)N)C(=O)N[C@@H](Cc1ccc(O)cc1)C(N)=O)[C@@H](C)O)[C@@H](C)CC)[C@@H](C)O)C(=O)O [compound 3, CF-[K^7(E-Pam)]hPP] | 401 nM | –
2 | pancreatic polypeptide [PP] | – | half-life in the circulation [2]: less than 7 min
3 | CCCCCCCCCCCCCCCC(=O)N[C@@H](CCC(=O)NCCCC[C@H](NC(=O)[C@H](C)NC(=O)[C@H](Cc1ccc(O)cc1)NC(=O)[C@H](CCC(N)=O)NC(=O)[C@H](C)NC(=O)[C@H](CCSC)NC(=O)[C@H](CCC(N)=O)NC(=O)[C@H](CCC(=O)O)NC(=O)[C@@H]1CCCN1C(=O)[C@@H](NC(=O)[C@H](C)NC(=O)[C@H](CC(N)=O)NC(=O)[C@H](CC(=O)O)NC(=O)CNC(=O)[C@@H]1CCCN1C(=O)[C@H](Cc1ccc(O)cc1)NC(=O)[C@@H](NC(=O)[C@@H]1CCCN1C(=O)[C@H](CCC(=O)O)NC(=O)[C@H](CC(C)C)NC(=O)[C@@H]1CCCN1C(=O)[C@H](C)NC(=O)c1ccc2c(c1)C(=O)OC21c2ccc(O)cc2Oc2cc(O)ccc21)C(C)C)[C@@H](C)O)C(=O)N[C@@H](CC(=O)O)C(=O)N[C@@H](CC(C)C)C(=O)N[C@@H](CCCNC(=N)N)C(=O)N[C@@H](CCCNC(=N)N)C(=O)N[C@@H](Cc1ccc(O)cc1)C(=O)N[C@H](C(=O)N[C@@H](CC(N)=O)C(=O)N[C@@H](CCSC)C(=O)N[C@@H](CC(C)C)C(=O)N[C@H](C(=O)N[C@@H](CCCNC(=N)N)C(=O)N1CCC[C@H]1C(=O)N[C@@H](CCCNC(=N)N)C(=O)N[C@@H](Cc1ccc(O)cc1)C(N)=O)[C@@H](C)O)[C@@H](C)CC)C(=O)O [compound 5, CF-[K^22(E-Pam)]hPP] | 8.6 nM | –
4 | CCCCCCCC(=O)N[C@@H](CCC(=O)NCCCC[C@H](NC(=O)[C@H](CC(N)=O)NC(=O)[C@@H](NC(=O)[C@H](Cc1ccc(O)cc1)NC(=O)[C@H](CCCNC(=N)N)NC(=O)[C@H](CCCNC(=N)N)NC(=O)[C@H](CC(C)C)NC(=O)[C@H](CC(=O)O)NC(=O)[C@H](C)NC(=O)[C@H](C)NC(=O)[C@H](Cc1ccc(O)cc1)NC(=O)[C@H](CCC(N)=O)NC(=O)[C@H](C)NC(=O)[C@H](CCSC)NC(=O)[C@H](CCC(N)=O)NC(=O)[C@H](CCC(=O)O)NC(=O)[C@@H]1CCCN1C(=O)[C@@H](NC(=O)[C@H](C)NC(=O)[C@H](CC(N)=O)NC(=O)[C@H](CC(=O)O)NC(=O)CNC(=O)[C@@H]1CCCN1C(=O)[C@H](Cc1ccc(O)cc1)NC(=O)[C@@H](NC(=O)[C@@H]1CCCN1C(=O)[C@H](CCC(=O)O)NC(=O)[C@H](CC(C)C)NC(=O)[C@@H]1CCCN1C(=O)c1ccc2c(c1)C1(OC2=O)c2ccc(N(C)C)cc2Oc2cc(N(C)C)ccc21)C(C)C)[C@@H](C)O)[C@@H](C)CC)C(=O)N[C@@H](CC(C)C)C(=O)N[C@H](C(=O)N[C@@H](CCCNC(=N)N)C(=O)N1CCC[C@H]1C(=O)N[C@@H](CCCNC(=N)N)C(=O)N[C@@H](Cc1ccc(O)cc1)C(N)=O)[C@@H](C)O)C(=O)O [16b, TAMRA-[K^30(E-Capr)]hPP2–36] (X1-PLEPVYPGDNATPEQMAQYAADLRRYINK([γGlu-Octanoyl])LTRPRY-NH2) | – | half-life at 10 μM [3]: 14.6 ± 2.8 h; half-life at 10 μM [4]: 281 ± 26.7 h
5 | CCCCCCCCCCCCCCCC(=O)N[C@@H](CCC(=O)NCCCC[C@H](NC(=O)[C@H](CC(N)=O)NC(=O)[C@@H](NC(=O)[C@H](Cc1ccc(O)cc1)NC(=O)[C@H](CCCNC(=N)N)NC(=O)[C@H](CCCNC(=N)N)NC(=O)[C@H](CC(C)C)NC(=O)[C@H](CC(=O)O)NC(=O)[C@H](C)NC(=O)[C@H](C)NC(=O)[C@H](Cc1ccc(O)cc1)NC(=O)[C@H](CCC(N)=O)NC(=O)[C@H](C)NC(=O)[C@H](CCSC)NC(=O)[C@H](CCC(N)=O)NC(=O)[C@H](CCC(=O)O)NC(=O)[C@@H]1CCCN1C(=O)[C@@H](NC(=O)[C@H](C)NC(=O)[C@H](CC(N)=O)NC(=O)[C@H](CC(=O)O)NC(=O)CNC(=O)[C@@H]1CCCN1C(=O)[C@H](Cc1ccc(O)cc1)NC(=O)[C@@H](NC(=O)[C@@H]1CCCN1C(=O)[C@H](CCC(=O)O)NC(=O)[C@H](CC(C)C)NC(=O)[C@@H]1CCCN1C(=O)[C@H](C)NC(=O)c1ccc2c(c1)C(=O)OC21c2ccc(O)cc2Oc2cc(O)ccc21)C(C)C)[C@@H](C)O)[C@@H](C)CC)C(=O)N[C@@H](CC(C)C)C(=O)N[C@H](C(=O)N[C@@H](CCCNC(=N)N)C(=O)N1CCC[C@H]1C(=O)N[C@@H](CCCNC(=N)N)C(=O)N[C@@H](Cc1ccc(O)cc1)C(N)=O)[C@@H](C)O)C(=O)O [compound 6, CF-[K^30(E-Pam)]hPP] | 14.9 nM | –
